Test results taken from patent US6734182B2, “Aryl sulfonamides and sulfamide derivatives and uses thereof” (Synaptic Pharmaceutical Corporation, priority 1995, dated 2004).

Columns and labels:
human Y2 receptor = molecular target: T1, human Y2 receptor (Homo sapiens, UniProt P49146); test: Radioligand binding to cloned human Y2 receptor (125I-PYY); conditions: cloned human Y2, stably transfected cells, read-out: Binding Affinity (K1 (nM) vs. 125I-PYY) Human Receptor Y2
T1 construct: expressed in transfected cells
T1 sequence (P49146 1-381): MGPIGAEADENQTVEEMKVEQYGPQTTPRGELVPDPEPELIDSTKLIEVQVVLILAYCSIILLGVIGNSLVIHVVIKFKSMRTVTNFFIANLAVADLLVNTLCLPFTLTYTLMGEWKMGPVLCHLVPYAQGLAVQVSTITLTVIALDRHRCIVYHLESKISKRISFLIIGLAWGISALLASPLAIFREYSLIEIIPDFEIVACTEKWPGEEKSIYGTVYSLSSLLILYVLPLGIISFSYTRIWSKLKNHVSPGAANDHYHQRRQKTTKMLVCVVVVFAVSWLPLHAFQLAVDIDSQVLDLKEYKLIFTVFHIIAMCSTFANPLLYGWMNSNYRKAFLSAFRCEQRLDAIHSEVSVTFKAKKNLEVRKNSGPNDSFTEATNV
Procedure: (§1) Human Y1, human Y2, and rat Y5 receptors were co-transfected with a G-418 resistant gene into the human embryonic kidney 293 cell line by a calcium phosphate transfection method (Cullen, 1987). Stably transfected cells were selected with G-418. Human Y4 and human Y5 receptors were similarly transfected into mouse fibroblast LM(tk−) cells and NIH-3T3 cells.
(§2) Binding of the compounds of the present invention to the human Y1, Y2, Y4 and Y5 receptors was evaluated using stably transfected 293 or LM(tk−) cells as described above. Stably transfected cell lines which may be used for binding assays include, for example, for the human Y1 receptor, 293-hY1-5 (deposited Jun. 4, 1996, under ATCC Accession No. CRL-12121), for the human Y2 receptor, 293-hY2-10 (deposited Jan. 27, 1994, under ATCC Accession No. CRL-11537), for the human Y4 receptor, L-hY4-3 (deposited Jan. 11, 1995, under ATCC Accession No. CRL-11779), and for the human Y5 receptor, L-hY5-7 (deposited Nov. 15, 1995, under ATCC Accession No. CRL-11995).
(§3) Membranes were harvested from COS-7 cells 48 hours after transient transfection. Adherent cells were washed twice in ice-cold phosphate buffered saline (138 mM NaCl, 8.1 mM Na2HPO4, 2.5 mM KCl, […], 0.9 mM CaCl2, 0.5 mM MgCl2, pH 7.4) and lysed by sonication in ice-cold sonication buffer (20 mM Tris-HCl, 5 mM EDTA, pH 7.7). Large particles and debris were cleared by low speed centrifugation (200 x g, 5 min, 4° C.). Membranes were collected from the supernatant fraction by centrifugation (32,000 x g, 18 min, […] ), washed with ice-cold hypotonic buffer, and collected again by centrifugation (32,000 x g, 18 min, 4° C.). […] Protein concentration was measured by the Bradford method (Bradford, 1976) using Bio-Rad Reagent, with bovine serum albumin as a standard. Membranes were held on ice for up to one hour and used fresh, or flash-frozen and stored in liquid nitrogen.
(§4) Membranes were prepared similarly from 293, LM(tk−), and NIH-3T3 cells. To prepare membranes from baculovirus infected cells, 2×10^7 Sf21 cells were grown in 150 mm tissue culture dishes and infected with a high-titer stock of hY5BB3. Cells were incubated for 2-4 days at 27° C., no CO2 be fore harvesting and membrane preparation as described above.

human Y4 receptor = molecular target: T2, human Y4 receptor (Homo sapiens, UniProt P50391); test: Radioligand binding to cloned human Y4 receptor (125I-PYY); conditions: cloned human Y4, stably transfected cells, read-out: Binding Affinity (K1 (nM) vs. 125I-PYY) Human Receptor Y4
T2 construct: expressed in transfected cells
T2 sequence (P50391 whole entry): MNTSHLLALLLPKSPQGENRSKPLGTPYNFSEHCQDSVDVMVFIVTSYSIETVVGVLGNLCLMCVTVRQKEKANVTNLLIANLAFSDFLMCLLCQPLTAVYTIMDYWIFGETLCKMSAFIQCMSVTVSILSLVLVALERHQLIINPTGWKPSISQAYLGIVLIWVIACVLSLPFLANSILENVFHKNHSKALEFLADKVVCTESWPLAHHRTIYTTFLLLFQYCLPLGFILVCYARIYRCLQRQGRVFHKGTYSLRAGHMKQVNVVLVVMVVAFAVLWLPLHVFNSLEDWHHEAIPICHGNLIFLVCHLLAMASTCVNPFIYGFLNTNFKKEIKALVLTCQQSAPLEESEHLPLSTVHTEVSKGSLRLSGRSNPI
Procedure: as §1, §2, §3, §4

cloned human Y5 receptor = molecular target: T3, cloned human Y5 receptor (Homo sapiens, UniProt Q15761); test: Functional assay: block of NPY-induced inhibition of cAMP accumulation in forskolin-stimulated LM(tk-) cells (radioimmunoassay of cAMP); assay type: cell-based; conditions: antagonism of NPY-induced inhibition of cAMP accumulation, forskolin-stimulated LM(tk-) cells with human Y5; at least three experiments
T3 construct: expressed in transfected cells
T3 sequence (Q15761 1-445): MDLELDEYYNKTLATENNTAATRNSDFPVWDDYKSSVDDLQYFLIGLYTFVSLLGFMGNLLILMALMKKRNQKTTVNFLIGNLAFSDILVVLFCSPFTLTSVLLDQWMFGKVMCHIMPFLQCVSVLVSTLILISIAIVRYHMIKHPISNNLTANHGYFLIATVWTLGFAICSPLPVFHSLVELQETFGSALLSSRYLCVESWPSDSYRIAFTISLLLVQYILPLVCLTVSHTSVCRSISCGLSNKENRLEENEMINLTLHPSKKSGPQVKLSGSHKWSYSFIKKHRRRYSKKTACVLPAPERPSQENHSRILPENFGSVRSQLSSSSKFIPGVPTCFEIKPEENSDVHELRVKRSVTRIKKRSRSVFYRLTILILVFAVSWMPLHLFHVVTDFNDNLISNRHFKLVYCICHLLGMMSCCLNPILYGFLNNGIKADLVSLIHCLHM

[1] = system: food intake in food-deprived rats; test: Food intake in food-deprived rats (24 h food deprivation); assay type: in vivo, rat; design: concentration or dose not given beside the values; conditions: rats after 24 h food deprivation; two hours after administration of test compound
human α1a receptor = molecular target: T4, human α1a receptor (Homo sapiens, UniProt P35348); test: Binding to cloned human α1a adrenergic receptor
T4 construct: expressed in transfected cells
T4 sequence (P35348 whole entry): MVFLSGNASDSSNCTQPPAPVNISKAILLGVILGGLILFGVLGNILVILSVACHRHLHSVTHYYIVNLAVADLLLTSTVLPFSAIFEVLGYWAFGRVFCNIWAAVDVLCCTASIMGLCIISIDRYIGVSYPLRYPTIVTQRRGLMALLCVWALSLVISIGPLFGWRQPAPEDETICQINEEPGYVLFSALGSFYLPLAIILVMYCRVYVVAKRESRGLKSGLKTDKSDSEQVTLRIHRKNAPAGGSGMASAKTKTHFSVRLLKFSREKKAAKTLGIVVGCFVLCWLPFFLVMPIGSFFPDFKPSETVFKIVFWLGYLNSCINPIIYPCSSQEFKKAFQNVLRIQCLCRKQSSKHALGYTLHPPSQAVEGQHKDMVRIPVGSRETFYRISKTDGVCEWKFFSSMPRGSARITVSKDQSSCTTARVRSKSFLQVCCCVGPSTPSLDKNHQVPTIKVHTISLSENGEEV

human 5HT1E receptor = molecular target: T5, human 5HT1E receptor (Homo sapiens, UniProt P28566); test: Binding to human 5HT1E receptor ([3H]serotonin); conditions: cloned human receptor
T5 construct: expressed in transfected cells
T5 sequence (P28566 whole entry): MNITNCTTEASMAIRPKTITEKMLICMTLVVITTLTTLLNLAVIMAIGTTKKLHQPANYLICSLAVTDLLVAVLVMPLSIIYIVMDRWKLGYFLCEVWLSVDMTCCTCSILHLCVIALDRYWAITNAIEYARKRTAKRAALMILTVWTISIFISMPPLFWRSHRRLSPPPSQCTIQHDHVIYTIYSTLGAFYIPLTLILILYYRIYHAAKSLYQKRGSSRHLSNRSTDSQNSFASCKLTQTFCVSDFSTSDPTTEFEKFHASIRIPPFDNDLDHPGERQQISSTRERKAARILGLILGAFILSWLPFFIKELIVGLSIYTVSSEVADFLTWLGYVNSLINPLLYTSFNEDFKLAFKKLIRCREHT
Procedure: 5HT1Dα, 5HT1Dβ, 5HT1E, 5HT1F Receptors: LM(tk−) clonal cell lines stably transfected with the genes encoding each of these 5HT receptor subtypes were prepared as described above. The cell line for the 5HT1Dα, receptor, designated as Ltk−8-30-84, was deposited on Apr. 17, 1990, and accorded ATCC Accession No. CRL 10421. The cell for the 5HT1Dβ receptor, designated as Ltk−11, was deposited on Apr. 17, 1990, and accorded ATCC Accession No. CRL 10422. The cell line for the 5HT1E receptor, designated 5 HT1E-7, was deposited on Nov. 6, 1991, and accorded ATCC Accession No. CRL 10913. The cell line for the 5HT1F receptor, designated L-5-HT1F, was deposited on Dec. 27, 1991, and accorded ATCC Accession No. ATCC 10957. Membrane preparations comprising these receptors were prepared as described below, and suspended in 50 mM Tris-HCl buffer (pH 7.4 at 37° C.) containing 10 mM MgCl2, 0.2 mM EDTA, 10 μM pargyline, and 0.1% ascorbate. The binding of compounds was determined in competition binding assays by incubation for 30 minutes at 37° C. in the presence of 5 nM [^3H) serotonin. Nonspecific binding was determined in the presence of 10 μM serotonin. The bound radioligand was separated by filtration through GF/B filters using a cell harvester.

human 5HT1Dα receptor = molecular target: T6, human 5HT1Dα receptor (Homo sapiens, UniProt P28221); test: Binding to human 5HT1Dα receptor ([3H]serotonin); conditions: cloned human receptor
T6 construct: expressed in transfected cells
T6 sequence (P28221 whole entry): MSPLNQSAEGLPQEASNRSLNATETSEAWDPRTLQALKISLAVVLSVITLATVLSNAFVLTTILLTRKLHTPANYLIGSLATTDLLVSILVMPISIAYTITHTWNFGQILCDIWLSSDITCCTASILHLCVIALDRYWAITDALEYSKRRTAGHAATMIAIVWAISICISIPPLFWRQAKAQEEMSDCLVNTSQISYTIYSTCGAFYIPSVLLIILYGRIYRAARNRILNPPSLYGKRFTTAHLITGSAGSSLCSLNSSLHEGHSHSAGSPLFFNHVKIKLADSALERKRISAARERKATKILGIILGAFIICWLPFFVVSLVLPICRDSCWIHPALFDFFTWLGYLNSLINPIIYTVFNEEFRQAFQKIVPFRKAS

| Ki (human Y2 receptor) [nM] | Ki (human Y4 receptor) [nM] | Kb (cloned human Y5 receptor) [µM] | Receptor (pKi) α1a (human α1a receptor) | Receptor (pKi) 5HT1E (human 5HT1E receptor) | Receptor (pKi) 5HT1Dα (human 5HT1Dα receptor) | SMILES | Two-hour food intake, percentage of intake compared to control rats, Mean (%) [1] [%] |
| --- | --- | --- | --- | --- | --- | --- | --- |
| 955 | 11700 | 0.023 | 7.47 | ≤ 5.30 | 6.04 | Cl.O=S(=O)(NCC1CCC(CNCC2CCc3ccccc3C2)CC1)c1cccc2ccccc12 (centres unmarked) [Example 32] | 36 |
| 7760 | 20400 | 0.026 | 7.72 | ≤ 5.30 | 5.94 | Cl.O=[N+]([O-])c1ccccc1S(=O)(=O)NCC1CCC(CNCC2CCc3ccccc3C2)CC1 (centres unmarked) [Example 36] | 35 |
